Results reported in patent publication US20240109855A1, “ANTI-QUORUM SENSING, ANTI-BIOFILM, AND INFLAMMATION ATTENUATING COMPOUNDS, COMPOSITIONS, AND METHODS OF USING SAME” (priority 2021, published 2024).
“Also recorded” adds a separate entry of the source.

Experiments:
[1] = test system: Agrobacterium tumefaciens (KYC55); assay: Quorum sensing inhibition test with bio-reporter KYC55 (TLC overlay); type: cell-based; conditions: for QSI activity against KYC55, in words: running text; for Degree of QSI of KYC55: Table 1, coumaperine derivatives, 40 mM in ~20 μL acetonitrile dried on TLC plate, overnight, color intensity; as to Degree of QSI of KYC55: key: −: no inhibition; +: low inhibition; ++: medium inhibition; +++: strong inhibition; as to Degree of quorum sensing inhibition (QSI), KYC55: key: −: no inhibition; +: low inhibition; ++: medium inhibition; +++: strong inhibition
Protocol: (§1) TLC preparation: all derivatives were dissolved in 100% acetonitrile to a concentration of 40 mM. Then placed 20 μlon the same spot on the TLC and let the solvent evaporate before use. CV026: few colonies were transferred to liquid LB (Lenox) for overnight incubation at 30° C. in a 45 degree in orbital shaker. At the O.D. 0.8 3 ml of the starter was added to preheated soft LB agar containing 500 nM of 3-oxo-C6 (Sigma-Aldrich). The mixture was then loaded on the TLC in a glass plate for O.N. incubation in 30° C. The next day inhibition zone was measured, while QS is taking place bacteria produce purple pigment, and when QS is inhibited no pigment is produced. KYC55 (pJZ372) (pJZ384) (pJZ410): 20 μl from the frozen stock into 25 ml AT media (AT buffer×20: 1.57 M KH2PO4 pH=7.3. AT salts mix×20: 300 mM (NH4)2SO4, 13 mM MgSO4, 1.4 mM CaCl2, 0.4 mM FeSO4·7H2O, 0.26 mM MnSO4·H2O. AT media: 50 ml×20 AT-buffer, 50 ml×20 AT-salts, 10 ml 50% (w/v) glucose, add 890 ml to final volume of 1 liter.) For O.N. at 30° C. in an orbital shaker. Into preheated water agar with 25 ml AT-buffer, and 60 μg/ml X-gal and 5 nM 3-oxo-c8 (both from Sigma-Aldrich) 25 ml of the starter was added. Then, that mixture was loaded on the TLC in glass plate for O.N. incubation in 30° C. The next day the inhibition zone was measured. The bacteria produce blue pigment during QS and when QS is inhibited no pigment is produced. KYC55 (pJZ372) (pJZ384) (pJZ410) preservation in tetracycline (1 μg/ml), spectinomycin (100 μg/ml), gentamicin (100 μg/ml) (all antibiotics from Sigma Aldrich) in AT media O.N. then centrifuged and suspend in 15% glycerol frozen and maintained at −80° C.

[2] = test system: Chromobacterium violaceum (CV026); assay: Quorum sensing inhibition test with bio-reporter CV026 (TLC overlay); type: cell-based; conditions: for QSI activity against CV026, in words: running text; for Degree of QSI of CV026: Table 1, coumaperine derivatives, 40 mM in ~20 μL acetonitrile dried on TLC plate, overnight, color intensity; as to Degree of QSI of CV026: key: −: no inhibition; +: low inhibition; ++: medium inhibition; +++: strong inhibition; as to Degree of quorum sensing inhibition (QSI), CV026: key: −: no inhibition; +: low inhibition; ++: medium inhibition; +++: strong inhibition
Protocol: as §1

[3] = Table 2, piperlongumine derivatives

SMILES: COc1cc(/C=C/C(=O)NCCCCC(=O)O)cc(OC)c1OC
- Degree of quorum sensing inhibition (QSI), KYC55 [1, 3]: −
- Degree of quorum sensing inhibition (QSI), CV026 [2, 3]: −

SMILES: COc1cc(/C=C/C(=O)NCCO)cc(OC)c1OC
- Degree of quorum sensing inhibition (QSI), KYC55 [1, 3]: −
- Degree of quorum sensing inhibition (QSI), CV026 [2, 3]: −

SMILES: C=CCNC(=O)/C=C/c1cc(OC)c(OC)c(OC)c1
- Degree of quorum sensing inhibition (QSI), KYC55 [1, 3]: +
- Degree of quorum sensing inhibition (QSI), CV026 [2, 3]: −

SMILES: COc1cc(/C=C/C(=O)NCCc2ccc(O)cc2)cc(OC)c1OC
- Degree of quorum sensing inhibition (QSI), KYC55 [1, 3]: −
- Degree of quorum sensing inhibition (QSI), CV026 [2, 3]: −

SMILES: COc1cc(/C=C/C(=O)NCCc2ccc(O)c(O)c2)cc(OC)c1OC
- Degree of quorum sensing inhibition (QSI), KYC55 [1, 3]: −
- Degree of quorum sensing inhibition (QSI), CV026 [2, 3]: −

SMILES: COc1cc(/C=C/C(=O)N2CCCCC2)cc(OC)c1OC
- Degree of quorum sensing inhibition (QSI), KYC55 [1, 3]: −
- Degree of quorum sensing inhibition (QSI), CV026 [2, 3]: −

SMILES: COc1cc(/C=C/C(=O)NC(C)C)cc(OC)c1OC
- Degree of quorum sensing inhibition (QSI), KYC55 [1, 3]: −
- Degree of quorum sensing inhibition (QSI), CV026 [2, 3]: −

SMILES: CCOC(=O)CNC(=O)/C=C/c1cc(OC)c(OC)c(OC)c1
- Degree of quorum sensing inhibition (QSI), KYC55 [1, 3]: −
- Degree of quorum sensing inhibition (QSI), CV026 [2, 3]: −

SMILES: COc1cc(/C=C/C(=O)NCC(=O)O)cc(OC)c1OC
- Degree of quorum sensing inhibition (QSI), KYC55 [1, 3]: +
- Degree of quorum sensing inhibition (QSI), CV026 [2, 3]: −

SMILES: CCNC(=O)/C=C/c1cc(OC)c(O)c(OC)c1
- Degree of quorum sensing inhibition (QSI), KYC55 [1, 3]: −
- Degree of quorum sensing inhibition (QSI), CV026 [2, 3]: −

SMILES: COc1cc(/C=C/C(=O)CC(=O)/C=C/c2ccc(OC(C)=O)c(OC)c2)ccc1OC(C)=O [AC-CU, Diacetylated Curcumin]
- Degree of quorum sensing inhibition (QSI), KYC55 ([1]; Table 3, curcumin derivatives): −
- QSI activity against KYC55, in words [1]: inactive
- Degree of quorum sensing inhibition (QSI), CV026 ([2]; Table 3, curcumin derivatives): −
- QSI activity against CV026, in words [2]: inactive

SMILES: COc1cc(CCC(=O)CC(=O)CCc2ccc(OC(C)=O)c(OC)c2)ccc1OC(C)=O [AC-THC, Diacetylated Tetrahydrocurcumin]
- Degree of quorum sensing inhibition (QSI), KYC55 ([1]; Table 3, curcumin derivatives): −
- QSI activity against KYC55, in words [1]: inactive
- Degree of quorum sensing inhibition (QSI), CV026 ([2]; Table 3, curcumin derivatives): −
- QSI activity against CV026, in words [2]: inactive

SMILES: O=C(/C=C/C=C/c1ccc(O)cc1)N1CCCCC1 [CP, (2E,4E)-5-(4-hydroxyphenyl)-1-(piperidin-1-yl)penta-2,4-dien-1-one]
- QSI activity against KYC55, in words [1]: inactivity
- QSI activity against CV026, in words [2]: low activity

SMILES: COc1ccc(/C=C/C=C/C(=O)N2CCCCC2)cc1OC [CP-10, (2E,4E)-5-(3,4-dimethoxyphenyl)-1-(piperidin-1-yl)penta-2,4-dien-1-one]
- Degree of QSI of KYC55 [1]: −
- QSI activity against KYC55, in words [1]: inactive
- Degree of QSI of CV026 [2]: −
- QSI activity against CV026, in words [2]: inactive

SMILES: COc1cc(/C=C/C=C/C(=O)N2CCCCC2)cc(OC)c1OC [CP-27, (2E,4E)-1-(piperidin-1-yl)-5-(3,4,5-trimethoxyphenyl)penta-2,4-dien-1-one]
- Degree of QSI of KYC55 [1]: −
- QSI activity against KYC55, in words [1]: inactive
- Degree of QSI of CV026 [2]: −
- QSI activity against CV026, in words [2]: inactive

SMILES: CN(C)c1ccc(/C=C/C=C/C(=O)N2CCCCC2)cc1 [CP-32, (2E,4E)-5-(4-(dimethylamino)phenyl)-1-(piperidin-1-yl)penta-2,4-dien-1-one]
- QSI activity against KYC55, in words [1]: inactivity
- QSI activity against CV026, in words [2]: low activity

SMILES: COc1ccc(/C=C/C=C/C(=O)N2CCCCC2)c(OC)c1OC [CP-50, (2E,4E)-1-(piperidin-1-yl)-5-(2,3,4-trimethoxyphenyl)penta-2,4-dien-1-one]
- Degree of QSI of KYC55 [1]: −
- QSI activity against KYC55, in words [1]: inactive
- Degree of QSI of CV026 [2]: −
- QSI activity against CV026, in words [2]: inactive

SMILES: COc1ccc(/C=C/C=C/C=C/C(=O)N2CCCCC2)cc1 [CP-102, (2E,4E,6E)-7-(4-methoxyphenyl)-1-(piperidin-1-yl)hepta-2,4,6-trien-1-one]
- Degree of QSI of KYC55 [1]: +
- QSI activity against KYC55, in words [1]: low
- Degree of QSI of CV026 [2]: ++
- QSI activity against CV026, in words [2]: moderate

SMILES: O=C(/C=C/C=C/c1ccc(Cl)cc1)N1CCCCC1 [CP-123, (2E,4E)-5-(4-chlorophenyl)-1-(piperidin-1-yl)penta-2,4-dien-1-one]
- Degree of QSI of KYC55 [1]: +
- QSI activity against KYC55, in words [1]: low activity
- Degree of QSI of CV026 [2]: −
- QSI activity against CV026, in words [2]: inactive

SMILES: O=C(/C=C/C=C/c1ccc(OC2CCCC2)cc1)N1CCCCC1 [CP-184, (2E,4E)-5-(4-(cyclopentyloxy)phenyl)-1-(piperidin-1-yl)penta-2,4-dien-1-one]
- Degree of QSI of KYC55 [1]: −
- QSI activity against KYC55, in words [1]: inactive
- Degree of QSI of CV026 [2]: −
- QSI activity against CV026, in words [2]: inactive

SMILES: COc1cc(/C=C/C=C/C(=O)N2CCCCC2)cc(OC)c1 [CP-193, (2E,4E)-5-(3,5-dimethoxyphenyl)-1-(piperidin-1-yl)penta-2,4-dien-1-one]
- Degree of QSI of KYC55 [1]: −
- QSI activity against KYC55, in words [1]: inactivity
- Degree of QSI of CV026 [2]: +
- QSI activity against CV026, in words [2]: low activity

SMILES: COc1cc(OC)c(/C=C/C=C/C(=O)N2CCCCC2)c(OC)c1 [CP-194, (2E,4E)-1-(piperidin-1-yl)-5-(2,4,6-trimethoxyphenyl)penta-2,4-dien-1-one]
- Degree of QSI of KYC55 [1]: −
- QSI activity against KYC55, in words [1]: inactive
- Degree of QSI of CV026 [2]: −
- QSI activity against CV026, in words [2]: inactive

SMILES: O=C(/C=C/C=C/c1ccc(O)c(O)c1)N1CCCCC1 [CP-209, (2E,4E)-5-(3,4-dihydroxyphenyl)-1-(piperidin-1-yl)penta-2,4-dien-1-one]
- Degree of QSI of KYC55 [1]: +
- QSI activity against KYC55, in words [1]: low activity; also recorded: inactive
- Degree of QSI of CV026 [2]: +
- QSI activity against CV026, in words [2]: low activity; also recorded: inactive

SMILES: O=C(/C=C/c1ccc(O)c(O)c1)N1CCCCC1 [CP-237, (E)-3-(3,4-dihydroxyphenyl)-1-(piperidin-1-yl)prop-2-en-1-one]
- Degree of QSI of KYC55 [1]: ++
- QSI activity against KYC55, in words [1]: moderate activity
- Degree of QSI of CV026 [2]: ++
- QSI activity against CV026, in words [2]: moderate activity

SMILES: O=C(/C=C/C=C/C=C/c1ccc(O)c(O)c1)N1CCCCC1 [CP-239A, (2E,4E,6E)-7-(3,4-dihydroxyphenyl)-1-(piperidin-1-yl)hepta-2,4,6-trien-1-one]
- Degree of QSI of KYC55 [1]: −
- QSI activity against KYC55, in words [1]: inactive
- Degree of QSI of CV026 [2]: −
- QSI activity against CV026, in words [2]: inactive

SMILES: O=C(/C=C/C=C/c1ccc2c(c1)OCO2)N1CCCCC1 [CP-262-F1]
- Degree of QSI of KYC55 [1]: −
- QSI activity against KYC55, in words [1]: inactive
- Degree of QSI of CV026 [2]: −
- QSI activity against CV026, in words [2]: inactive

SMILES: O=C(/C=C/C=C/c1cc(O)c(O)c(O)c1)N1CCCCC1 [CP-262-F2, (2E,4E)-1-(piperidin-1-yl)-5-(3,4,5-trihydroxyphenyl)penta-2,4-dien-1-one]
- Degree of QSI of KYC55 [1]: +
- QSI activity against KYC55, in words [1]: low activity
- Degree of QSI of CV026 [2]: −
- QSI activity against CV026, in words [2]: inactive

SMILES: COc1cc(/C=C/C(=O)N2CCCCC2)ccc1OC(C)=O [CP-291]
- Degree of QSI of KYC55 [1]: ++
- QSI activity against KYC55, in words [1]: moderate activity
- Degree of QSI of CV026 [2]: −
- QSI activity against CV026, in words [2]: inactive

SMILES: COc1cc(/C=C/C(=O)N2CCCCC2)ccc1O [CP-293]
- Degree of QSI of KYC55 [1]: −
- QSI activity against KYC55, in words [1]: inactive
- Degree of QSI of CV026 [2]: −
- QSI activity against CV026, in words [2]: inactive
